Activity calls are given as the source filed them. The calls are words filed in the database; no cut-off is given here.

The test system of data set [1] is SH-SY5Y. In words: Cytotoxicity against H2O2 induced human neuroblastoma SH-SY5Y cells assessed as cell viability measured after 5 hrs by MTT assay. Type of data set: cell-based. For orientation: Tetrazolium assays rely on reduction of a dye to a coloured formazan, in cell work by metabolically active cells.
The subject of data set [2] is SH-SY5Y. In words: Neuroprotective activity against H2O2-induced human SH-SY5Y cell damage assessed as protective rate at 50 uM pretreated for 1 hr followed by H2O2 addition measured after 4 hrs by MTT assay (reference value: 68.2 +/- 1.34%). Type of data set: functional. Conditions: time 5 hrs.
The test system of data set [3] is SH-SY5Y. In words: Inhibition of ROS production in H2O2-induced human SH-SY5Y cells at 50 uM pretreated for 1 hr followed by H2O2 addition measured after 4 hrs by DCFH-DA based flow cytometry. Type of data set: functional, cell-based. Conditions: time 5.0 hrs. For orientation: Flow cytometry measures light scatter and fluorescence of single cells or particles in a stream.

Data set [4] deals with SH-SY5Y. In words: Neuroprotective activity against H2O2-induced human SH-SY5Y cell death assessed as reversal of apoptosis at 50 uM pretreated for 1 hr followed by H2O2 addition measured after 4 hrs by Hoechst 33258 based fluorescence microscopy. Type of data set: functional. Conditions: time 5.0 hrs.
For data set [5], the system named is SH-SY5Y. In words: Neuroprotective activity against H2O2-induced human SH-SY5Y cell death assessed as early apoptotic cells at 50 uM measured by Annexin V/PI double staining base flow cytometry analysis (reference value: 15.23%). Type of data set: functional, cell-based.
In data set [6] the test system is SH-SY5Y. The experiment in a line: Neuroprotective activity against H2O2-induced human SH-SY5Y cell death assessed as late apoptotic cells at 50 uM measured by Annexin V/PI double staining base flow cytometry analysis (reference value: 7.78%). Type of data set: functional, cell-based.
For data set [7], the system named is SH-SY5Y. The experiment in a line: Neuroprotective activity against H2O2-induced human SH-SY5Y cell death assessed as necrotic cells at 50 uM measured by Annexin V/PI double staining base flow cytometry analysis (reference value: 0.32%). It is filed as functional, cell-based.
Data set [8] relates to SH-SY5Y. The experiment in a line: Neuroprotective activity against H2O2-induced human SH-SY5Y cell apoptosis assessed as PARP protein expression at 50 uM measured by Western blot analysis relative to control. Type of data set: functional, cell-based. A general note: A western blot detects proteins with antibodies after separation by electrophoresis.
Data set [9] concerns SH-SY5Y. In words: Neuroprotective activity against H2O2-induced human SH-SY5Y cell apoptosis assessed as caspase 3 protein expression at 50 uM measured by Western blot analysis relative to control. Type of data set: functional, cell-based.
The subject of data set [10] is SH-SY5Y. The experiment in a line: Neuroprotective activity against H2O2-induced human SH-SY5Y cell apoptosis assessed as Bcl-2 protein expression at 50 uM measured by Western blot analysis relative to control. Type of data set: functional, cell-based.
For data set [11], the system named is SH-SY5Y. The experiment in a line: Neuroprotective activity against H2O2-induced human SH-SY5Y cell death assessed as viable cells at 50 uM measured by Annexin V/PI double staining base flow cytometry analysis (reference value: 76.67%). Particulars: read-out: Activity. It is filed as functional.
Data set [12] has as its system SH-SY5Y. In words: Neuroprotective activity against H2O2-induced human SH-SY5Y cell apoptosis assessed as Bax protein expression at 50 uM measured by Western blot analysis relative to control. Type of data set: functional, cell-based.

Consider `CCN1C[C@]2(COC(=O)c3ccccc3NC(=O)c3ccccc3NC(=O)C(C)Cl)CC[C@H](OC)C34C1C(C[C@@H]32)[C@@]1(O)C[C@H](OC)C2C[C@@H]4[C@@H]1[C@H]2O` (stereo partly specified), for which the Activity result is on record as “Non-Toxic” in data set [1] and 2.2% in data set [2].
Consider `CCCCC(=O)Nc1ccccc1C(=O)Nc1ccccc1C(=O)OC[C@@]12CC[C@H](OC)C34C(C(C[C@@H]31)[C@@]1(O)C[C@H](OC)C3C[C@@H]4[C@@H]1[C@H]3O)N(CC)C2`, for which the Activity entry in [1] is recorded as “Non-Toxic”; in data set [2] it was 11.7%.
On to `CCN1C[C@]2(COC(=O)c3ccccc3NC(=O)c3ccccc3NC(=O)CCCCl)CC[C@H](OC)C34C1C(C[C@@H]32)[C@@]1(O)C[C@H](OC)C2C[C@@H]4[C@@H]1[C@H]2O`, for which the Activity entry in [1] is “Non-Toxic”; in data set [2] it was 15.6%.
With `CCN1C[C@]2(COC(=O)c3ccccc3NC(=O)c3ccccc3NC(=O)c3ccccc3)CC[C@H](OC)C34C1C(C[C@@H]32)[C@@]1(O)C[C@H](OC)C2C[C@@H]4[C@@H]1[C@H]2OC(=O)c1ccccc1NC(=O)c1ccccc1NC(=O)c1ccccc1`, the values for the Activity entry in data set [1] and in data set [2] were “Non-Toxic” and 10.8%, respectively.
Consider `CCN1C[C@]2(COC(=O)c3ccccc3NC(=O)c3ccccc3NC(=O)C(C)(C)O)CC[C@H](OC)C34C1C(C[C@@H]32)[C@@]1(O)C[C@H](OC)C2C[C@@H]4[C@@H]1[C@H]2OC(C)=O`, for which the Activity result in [1] is given as “Non-Toxic”; in data set [2], 48.6%.
Turning to `CCCCC(=O)Nc1ccccc1C(=O)Nc1ccccc1C(=O)OC[C@@]12CC[C@H](OC)C34C(C(C[C@@H]31)[C@@]1(O)C[C@H](OC)C3C[C@@H]4[C@@H]1[C@H]3OC(=O)c1ccccc1NC(=O)c1ccccc1NC(=O)CCCC)N(CC)C2`, the figures for the Activity result in data set [1] and in data set [2] were “Non-Toxic” and 33%, respectively.
As for `CCCCC(CC)C(=O)Nc1ccccc1C(=O)Nc1ccccc1C(=O)OC[C@@]12CC[C@H](OC)C34C(C(C[C@@H]31)[C@@]1(O)C[C@H](OC)C3C[C@@H]4[C@@H]1[C@H]3O)N(CC)C2` (stereo partly specified), the values for the Activity result in [1] and in [2] were “Non-Toxic” and 6.5%, respectively.
With `CCN1C[C@]2(COC(=O)c3ccccc3NC(=O)c3ccccc3NC(=O)C(C)(C)O)CC[C@H](OC)C34C1C(C[C@@H]32)[C@@]1(O)C[C@H](OC)C2C[C@@H]4[C@@H]1[C@H]2OC(=O)c1ccccc1NC(=O)c1ccccc1NC(=O)C(C)(C)O`, the Activity entry was “Non-Toxic” in data set [1] and 12.4% in data set [2].
As for `CCN1C[C@]2(COC(=O)c3ccccc3NC(=O)c3ccccc3NC(=O)C(C)(O)CC)CC[C@H](OC)C34C1C(C[C@@H]32)[C@@]1(O)C[C@H](OC)C2C[C@@H]4[C@@H]1[C@H]2OC(C)=O` (stereo partly specified), the Activity entry in data set [1] is listed as “Non-Toxic”; in data set [2], 62.1%.
Taken in the same sequence, the figures for `CCN1C[C@]2(COC(=O)c3ccccc3NC(=O)c3ccccc3NC(=O)CC(C)C)CC[C@H](OC)C34C1C(C[C@@H]32)[C@@]1(O)C[C@H](OC)C2C[C@@H]4[C@@H]1[C@H]2OC(=O)c1ccccc1NC(=O)c1ccccc1NC(=O)CC(C)C` were “Non-Toxic” and 13%.
For the molecule `CCO[C@]12C[C@H](OC)C3C[C@H]([C@@H]1[C@H]3O)C13C4C2C[C@@H]1[C@@](COC(=O)c1ccccc1NC(=O)c1ccccc1NC(=O)C(C)(C)O)(CC[C@@H]3OC)CN4CC`, the Activity result in [1] was “Non-Toxic”; in data set [2], 58.6%.
Consider `CCN1C[C@]2(COC(=O)c3ccccc3NC(=O)c3ccccc3NC(=O)C(C)(C)O)CC[C@H](OC)C34C1C(C[C@@H]32)[C@@]1(O)C[C@H](OC)C2C[C@@H]4[C@@H]1[C@H]2O`, for which the Activity entry in [1] is recorded as “Non-Toxic”; in data set [2], 77.4%. For the same molecule, the inhibition entry in [3] is “Active”. Further, the result in [4], in data set [5], in data set [6], in data set [7], in data set [8] and in data set [9] was Active. For the same molecule, the outcome in [10] and in data set [12] was Active. Also, the viability at 50 µM in [11] came out at 89.2%.
Regarding `CCN1C[C@]2(COC(=O)c3ccccc3NC(=O)c3ccccc3NC(=O)C(C)C)CC[C@H](OC)C34C1C(C[C@@H]32)[C@@]1(O)C[C@H](OC)C2C[C@@H]4[C@@H]1[C@H]2OC(=O)c1ccccc1NC(=O)c1ccccc1NC(=O)C(C)C`, the Activity entry in [1] was “Non-Toxic”; in data set [2] it was 5.5%.
On to `CCN1C[C@]2(COC(=O)c3ccccc3NC(=O)c3ccccc3NC(C)=O)CC[C@H](OC)C34C1C(C[C@@H]32)[C@@]1(O)C[C@H](OC)C2C[C@@H]4[C@@H]1[C@H]2OC(=O)c1ccccc1NC(=O)c1ccccc1NC(C)=O`, for which the Activity entry was “Non-Toxic” in data set [1] and 19.9% in data set [2].
Taken in the same sequence, the figures for `CCN1C[C@]2(COC(=O)c3ccccc3NC(=O)c3ccccc3NC(=O)C(Cl)(Cl)Cl)CC[C@H](OC)C34C1C(C[C@@H]32)[C@@]1(O)C[C@H](OC)C2C[C@@H]4[C@@H]1[C@H]2O` were “Non-Toxic” and 14.5%.
`CCCC(=O)Nc1ccccc1C(=O)Nc1ccccc1C(=O)OC[C@@]12CC[C@H](OC)C34C(C(C[C@@H]31)[C@@]1(O)C[C@H](OC)C3C[C@@H]4[C@@H]1[C@H]3OC(=O)c1ccccc1NC(=O)c1ccccc1NC(=O)CCC)N(CC)C2`: the Activity result in data set [1] is on record as “Non-Toxic”; in data set [2] it was 21.3%.
On to `CCN1C[C@]2(COC(=O)c3ccccc3NC(=O)c3ccccc3NC(=O)C(C)(C)O)CC[C@H](OC)C34C1C(C[C@@H]32)[C@@]1(OC(C)=O)C[C@H](OC)C2C[C@@H]4[C@@H]1[C@H]2OC(C)=O`, for which the Activity entry in data set [1] is reported as “Non-Toxic”; in [2], 54.2%.
For `CCCCCC(=O)Nc1ccccc1C(=O)Nc1ccccc1C(=O)OC[C@@]12CC[C@H](OC)C34C(C(C[C@@H]31)[C@@]1(O)C[C@H](OC)C3C[C@@H]4[C@@H]1[C@H]3O)N(CC)C2`, the Activity result in data set [1] is on record as “Non-Toxic”; in [2], 22.5%.

For the origin of these results see ChEMBL document CHEMBL4834406, “Isolation, Structure Elucidation, Semi-Synthesis, and Structural Modification of C19-Diterpenoid Alkaloids from Aconitum apetalum and Their Neuroprotective Activities” (J Nat Prod, 2021).
